What all share (format): in vivo
Holding throughout (details): 5 mg/kg oral gavage

In one assay the target is ABHD6 (Mus musculus (Mouse), UniProt Q8R2Y0). The assay is described as follows: Mouse brain proteomes from inhibitor treated mice (oral gavage, sacrifice 4 h after administration, ABPP analysis), ABHD6. In short, it runs like this:
(§1)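 Mice (wild-type C57Bl/6J) receive inhibitor by oral gavage, e.g. in PEG400/Ethanol/PBS (7/2/1). Each animal is killed 4 h later. Brain proteomes are prepared and analyzed by ABPP, giving % inhibition at 5 mg/kg.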

In the next assay the target is FAAH (Mus musculus (Mouse), UniProt O08914). The assay is described as follows: Mouse brain proteomes from inhibitor treated mice (oral gavage, sacrifice 4 h after administration, ABPP analysis), FAAH. In short, it runs like this: as §1
The target in the next assay is MAGL (Mus musculus (Mouse), UniProt O35678). Nature of the assay: Mouse brain proteomes from inhibitor treated mice (oral gavage, sacrifice 4 h after administration, ABPP analysis). The protocol: Preparation of Mouse Brain Proteomes from Inhibitor Treated Mice.
Inhibitors were administered to wild-type C57Bl/6J by oral gavage in a vehicle, e.g. PEG400/Ethanol/PBS (7/2/1). Each animal was sacrificed 4 h following administration and brain proteomes were prepared and analyzed according to previously established methods (See Niphakis, M. J., et al. (2011) ACS Chem. Neurosci. and Long, J. Z., et al. Nat. Chem. Biol. 5:37-44). Data from this assay is shown in Table 2 (% inhibition at 5 mg/kg).

Chain of FAAH (O08914 whole entry): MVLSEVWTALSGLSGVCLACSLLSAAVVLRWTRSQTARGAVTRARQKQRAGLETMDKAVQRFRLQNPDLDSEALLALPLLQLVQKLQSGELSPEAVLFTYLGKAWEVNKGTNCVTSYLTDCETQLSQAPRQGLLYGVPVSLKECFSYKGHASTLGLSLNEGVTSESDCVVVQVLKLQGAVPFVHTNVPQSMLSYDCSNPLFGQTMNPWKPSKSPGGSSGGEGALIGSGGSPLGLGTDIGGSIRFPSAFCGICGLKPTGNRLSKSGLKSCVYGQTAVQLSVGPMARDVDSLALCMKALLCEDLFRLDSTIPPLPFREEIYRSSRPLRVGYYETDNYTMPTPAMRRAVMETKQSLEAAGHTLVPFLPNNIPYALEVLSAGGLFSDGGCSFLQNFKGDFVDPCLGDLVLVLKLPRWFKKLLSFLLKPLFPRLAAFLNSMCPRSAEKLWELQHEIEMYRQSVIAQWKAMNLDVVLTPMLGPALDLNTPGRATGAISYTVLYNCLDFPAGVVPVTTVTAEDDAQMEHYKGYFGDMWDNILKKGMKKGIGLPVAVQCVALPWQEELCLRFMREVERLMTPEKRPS
Chain of ABHD6 (Q8R2Y0 whole entry): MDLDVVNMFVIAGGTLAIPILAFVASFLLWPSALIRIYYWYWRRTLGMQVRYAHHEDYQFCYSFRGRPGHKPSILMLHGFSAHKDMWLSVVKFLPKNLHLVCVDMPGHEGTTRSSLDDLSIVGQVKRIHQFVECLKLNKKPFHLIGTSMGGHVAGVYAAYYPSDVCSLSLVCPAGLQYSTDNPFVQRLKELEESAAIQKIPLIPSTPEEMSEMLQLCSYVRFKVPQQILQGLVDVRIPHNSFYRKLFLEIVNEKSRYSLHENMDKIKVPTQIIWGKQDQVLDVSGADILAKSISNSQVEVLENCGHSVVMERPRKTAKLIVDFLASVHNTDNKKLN
Chain of MAGL (O35678 whole entry): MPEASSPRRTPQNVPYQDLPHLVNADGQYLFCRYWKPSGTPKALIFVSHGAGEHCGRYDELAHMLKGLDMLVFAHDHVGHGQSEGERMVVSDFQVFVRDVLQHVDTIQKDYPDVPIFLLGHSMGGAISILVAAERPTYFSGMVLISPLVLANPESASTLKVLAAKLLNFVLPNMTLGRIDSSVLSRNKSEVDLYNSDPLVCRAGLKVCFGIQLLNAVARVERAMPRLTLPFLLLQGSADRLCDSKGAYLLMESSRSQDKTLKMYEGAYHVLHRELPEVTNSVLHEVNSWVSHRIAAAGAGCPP

As to `O=C(OC(C(F)(F)F)C(F)(F)F)N1CCC2(CCCN2Cc2cc(Cl)cc(N3CCCC3)c2)CC1` [Example 34, 1,1,1,3,3,3-Hexafluoropropan-2-yl 1-(3-chloro-5-(pyrrolidin-1-yl)benzyl)-1,8-diazaspiro[4.5]decane-8-carboxylate], the “ABHD6 % Inh 5 mg/kg (mouse)” value at ABHD6 is on record as “# (# is < 25%)”. For the same molecule, at FAAH, the “FAAH % Inh 5 mg/kg (mouse)” value is recorded as “# (# is < 25%)”. In addition, the “MAGL % Inh 5 mg/kg (mouse)” value on MAGL is “### (### is ≥ 75%)”.
Take `O=C(OC(C(F)(F)F)C(F)(F)F)N1CCC2(CCCN2Cc2cc(N3CCOCC3)cc(C(F)(F)F)c2)CC1` [Example 35, 1,1,1,3,3,3-Hexafluoropropan-2-yl 1-(3-morpholino-5-(trifluoromethyl)benzyl)-1,8-diazaspiro[4.5]decane-8-carboxylate]: the “ABHD6 % Inh 5 mg/kg (mouse)” value at ABHD6 is given as “# (# is < 25%)”. Also, the “FAAH % Inh 5 mg/kg (mouse)” value at FAAH is listed as “# (# is < 25%)”. The “MAGL % Inh 5 mg/kg (mouse)” value at MAGL is “### (### is ≥ 75%)”.
For the molecule `O=C(OC(C(F)(F)F)C(F)(F)F)N1CCC2(CCCN2Cc2cc(N3CCCC3)cc(C(F)(F)F)c2)CC1` [Example 36, 1,1,1,3,3,3-Hexafluoropropan-2-yl 1-(3-(pyrrolidin-1-yl)-5-(trifluoromethyl)benzyl)-1,8-diazaspiro[4.5]decane-8-carboxylate], on ABHD6, the “ABHD6 % Inh 5 mg/kg (mouse)” value is “# (# is < 25%)”. Moreover, the “FAAH % Inh 5 mg/kg (mouse)” value on FAAH is “# (# is < 25%)”. Further, the “MAGL % Inh 5 mg/kg (mouse)” value at MAGL is “### (### is ≥ 75%)”.
Turning to `O=C(OC(C(F)(F)F)C(F)(F)F)N1CCC2(CCCN2Cc2cc(OC(F)(F)F)cc(N3CCOCC3)c2)CC1` [Example 37, 1,1,1,3,3,3-Hexafluoropropan-2-yl 1-(3-morpholino-5-(trifluoromethoxy)benzyl)-1,8-diazaspiro[4.5]decane-8-carboxylate], the “ABHD6 % Inh 5 mg/kg (mouse)” value at ABHD6 is “# (# is < 25%)”. On FAAH, the “FAAH % Inh 5 mg/kg (mouse)” value was “# (# is < 25%)”. Further, at MAGL, the “MAGL % Inh 5 mg/kg (mouse)” value is “### (### is ≥ 75%)”.
For `O=C(OC(C(F)(F)F)C(F)(F)F)N1CCC2(CCCN2Cc2cc(N3CCS(=O)(=O)CC3)cc(C(F)(F)F)c2)CC1` [Example 42, 1,1,1,3,3,3-Hexafluoropropan-2-yl 1-(3-(1,1-dioxidothiomorpholino)-5-(trifluoromethyl)benzyl)-1,8-diazaspiro[4.5]decane-8-carboxylate], the “ABHD6 % Inh 5 mg/kg (mouse)” value on ABHD6 is reported as “# (# is < 25%)”. Besides, the “FAAH % Inh 5 mg/kg (mouse)” value at FAAH was “# (# is < 25%)”. The “MAGL % Inh 5 mg/kg (mouse)” value on MAGL was “### (### is ≥ 75%)”.
For the molecule `O=C(OC(C(F)(F)F)C(F)(F)F)N1CCC2(CCCN2Cc2cc(N3CC4COCC4C3)cc(C(F)(F)F)c2)CC1` (stereo not drawn) [Example 46, 1,1,1,3,3,3-Hexafluoropropan-2-yl 1-(3-(tetrahydro-1H-furo[3,4-c]pyrrol-5(3H)-yl)-5-(trifluoromethyl)benzyl)-1,8-diazaspiro[4.5]decane-8-carboxylate], the “ABHD6 % Inh 5 mg/kg (mouse)” value on ABHD6 is recorded as “# (# is < 25%)”. In addition, the “FAAH % Inh 5 mg/kg (mouse)” value at FAAH is recorded as “# (# is < 25%)”. In addition, at MAGL, the “MAGL % Inh 5 mg/kg (mouse)” value is recorded as “### (### is ≥ 75%)”.
As for `O=C(OC(C(F)(F)F)C(F)(F)F)N1CCC2(CCCN2Cc2cc(N3CCC3)cc(C(F)(F)F)c2)CC1` [Example 47, 1,1,1,3,3,3-Hexafluoropropan-2-yl 1-(3-(azetidin-1-yl)-5-(trifluoromethyl)benzyl)-1,8-diazaspiro[4.5]decane-8-carboxylate], the “ABHD6 % Inh 5 mg/kg (mouse)” value on ABHD6 was “# (# is < 25%)”. For the same molecule, the “FAAH % Inh 5 mg/kg (mouse)” value on FAAH is reported as “# (# is < 25%)”. For the same molecule, on MAGL, the “MAGL % Inh 5 mg/kg (mouse)” value is on record as “### (### is ≥ 75%)”.
As for `CC1(C)CC2(CCN(C(=O)OC(C(F)(F)F)C(F)(F)F)CC2)CN1Cc1ccc(C(F)(F)F)cc1N1CCC2(CCOCC2)C1` [Example 52, 1,1,1,3,3,3-Hexafluoropropan-2-yl 2-(2-(8-oxa-2-azaspiro[4.5]decan-2-yl)-4-(trifluoromethyl)benzyl)-3,3-dimethyl-2,8-diazaspiro[4.5]decane-8-carboxylate], the “ABHD6 % Inh 5 mg/kg (mouse)” value at ABHD6 is “# (# is < 25%)”. Moreover, on FAAH, the “FAAH % Inh 5 mg/kg (mouse)” value was “# (# is < 25%)”. Further, the “MAGL % Inh 5 mg/kg (mouse)” value on MAGL is “# (# is < 25%)”.
On to `O=C(OC(C(F)(F)F)C(F)(F)F)N1CCC2(CCCN2Cc2cccc(Cl)c2)CC1` [Example 61, 1,1,1,3,3,3-Hexafluoropropan-2-yl 1-(3-chlorobenzyl)-1,8-diazaspiro[4.5]decane-8-carboxylate], for which the “ABHD6 % Inh 5 mg/kg (mouse)” value on ABHD6 was “# (# is < 25%)”. In addition, the “FAAH % Inh 5 mg/kg (mouse)” value on FAAH is reported as “### (### is ≥ 75%)”. Moreover, the “MAGL % Inh 5 mg/kg (mouse)” value at MAGL was “### (### is ≥ 75%)”.
Consider `O=C(OC(C(F)(F)F)C(F)(F)F)N1CCC2(CCCN2Cc2ccc(C(F)(F)F)cc2N2CCOCC2)CC1` [Example 67, 1,1,1,3,3,3-Hexafluoropropan-2-yl 1-(2-morpholino-4-(trifluoromethyl)benzyl)-1,8-diazaspiro[4.5]decane-8-carboxylate], for which the “ABHD6 % Inh 5 mg/kg (mouse)” value at ABHD6 is recorded as “# (# is < 25%)”. The “FAAH % Inh 5 mg/kg (mouse)” value at FAAH was “# (# is < 25%)”. Moreover, the “MAGL % Inh 5 mg/kg (mouse)” value on MAGL is “### (### is ≥ 75%)”.
Turning to `CN1CCCc2ccc(CN3CCCC34CCN(C(=O)OC(C(F)(F)F)C(F)(F)F)CC4)cc21` [Example 68, 1,1,1,3,3,3-Hexafluoropropan-2-yl 1-((1-methyl-1,2,3,4-tetrahydroquinolin-7-yl)methyl)-1,8-diazaspiro[4.5]decane-8-carboxylate], the “ABHD6 % Inh 5 mg/kg (mouse)” value at ABHD6 is reported as “# (# is < 25%)”. The “FAAH % Inh 5 mg/kg (mouse)” value at FAAH is reported as “# (# is < 25%)”. The “MAGL % Inh 5 mg/kg (mouse)” value on MAGL was “### (### is ≥ 75%)”.
As for `O=C(OC(C(F)(F)F)C(F)(F)F)N1CCC2(CCCN2Cc2ccc(Cl)cc2N2CC3CCC(C2)O3)CC1` [Example 75, 1,1,1,3,3,3-Hexafluoropropan-2-yl 1-(2-(8-oxa-3-azabicyclo[3.2.1]octan-3-yl)-4-chlorobenzyl)-1,8-diazaspiro[4.5]decane-8-carboxylate], the “ABHD6 % Inh 5 mg/kg (mouse)” value at ABHD6 is listed as “# (# is < 25%)”. The “FAAH % Inh 5 mg/kg (mouse)” value on FAAH was “# (# is < 25%)”. Besides, at MAGL, the “MAGL % Inh 5 mg/kg (mouse)” value is “### (### is ≥ 75%)”.
For the molecule `O=C(OC(C(F)(F)F)C(F)(F)F)N1CCC2(CCCN2Cc2ccc(Cl)cc2N2CCCC2)CC1` [Example 76, 1,1,1,3,3,3-Hexafluoropropan-2-yl 1-(4-chloro-2-(pyrrolidin-1-yl)benzyl)-1,8-diazaspiro[4.5]decane-8-carboxylate], at ABHD6, the “ABHD6 % Inh 5 mg/kg (mouse)” value is “# (# is < 25%)”. Also, the “FAAH % Inh 5 mg/kg (mouse)” value at FAAH was “# (# is < 25%)”. Moreover, at MAGL, the “MAGL % Inh 5 mg/kg (mouse)” value is reported as “### (### is ≥ 75%)”.
Regarding `O=C(OC(C(F)(F)F)C(F)(F)F)N1CCC2(CCCN2Cc2ccc(Cl)cc2N2CCOCC2)CC1` [Example 77, 1,1,1,3,3,3-Hexafluoropropan-2-yl 1-(4-chloro-2-morpholinobenzyl)-1,8-diazaspiro[4.5]decane-8-carboxylate], the “ABHD6 % Inh 5 mg/kg (mouse)” value on ABHD6 was “# (# is < 25%)”. Further, the “FAAH % Inh 5 mg/kg (mouse)” value at FAAH is “# (# is < 25%)”. In addition, on MAGL, the “MAGL % Inh 5 mg/kg (mouse)” value is given as “### (### is ≥ 75%)”.
On to `O=C(OC(C(F)(F)F)C(F)(F)F)N1CCC2(CCCN2Cc2cccc(N3CCOCC3)c2Cl)CC1` [Example 79, 1,1,1,3,3,3-Hexafluoropropan-2-yl 1-(2-chloro-3-morpholinobenzyl)-1,8-diazaspiro[4.5]decane-8-carboxylate], for which, at ABHD6, the “ABHD6 % Inh 5 mg/kg (mouse)” value is reported as “# (# is < 25%)”. Moreover, the “FAAH % Inh 5 mg/kg (mouse)” value on FAAH is given as “# (# is < 25%)”. Besides, the “MAGL % Inh 5 mg/kg (mouse)” value on MAGL is recorded as “### (### is ≥ 75%)”.
As to `O=C(OC(C(F)(F)F)C(F)(F)F)N1CCC2(CCCN2Cc2cccc(N3CCCC3)c2Cl)CC1` [Example 81, 1,1,1,3,3,3-Hexafluoropropan-2-yl 1-(2-chloro-3-(pyrrolidin-1-yl)benzyl)-1,8-diazaspiro[4.5]decane-8-carboxylate], the “ABHD6 % Inh 5 mg/kg (mouse)” value at ABHD6 is “# (# is < 25%)”. The “FAAH % Inh 5 mg/kg (mouse)” value on FAAH is “# (# is < 25%)”. In addition, the “MAGL % Inh 5 mg/kg (mouse)” value at MAGL was “### (### is ≥ 75%)”.
As for `O=C(OC(C(F)(F)F)C(F)(F)F)N1CCC2(CCCN2Cc2cccc(N3CC4CCC(C3)O4)c2Cl)CC1` [Example 82, 1,1,1,3,3,3-Hexafluoropropan-2-yl 1-(3-(8-oxa-3-azabicyclo[3.2.1]octan-3-yl)-2-chlorobenzyl)-1,8-diazaspiro[4.5]decane-8-carboxylate], the “ABHD6 % Inh 5 mg/kg (mouse)” value on ABHD6 was “# (# is < 25%)”. At FAAH, the “FAAH % Inh 5 mg/kg (mouse)” value is listed as “# (# is < 25%)”. Besides, on MAGL, the “MAGL % Inh 5 mg/kg (mouse)” value was “### (### is ≥ 75%)”.
As to `Cc1c(CN2CCCC23CCN(C(=O)OC(C(F)(F)F)C(F)(F)F)CC3)cccc1N1CCCCC1` [Example 84, 1,1,1,3,3,3-Hexafluoropropan-2-yl 1-(2-methyl-3-(piperidin-1-yl)benzyl)-1,8-diazaspiro[4.5]decane-8-carboxylate], on ABHD6, the “ABHD6 % Inh 5 mg/kg (mouse)” value is listed as “# (# is < 25%)”. At FAAH, the “FAAH % Inh 5 mg/kg (mouse)” value is recorded as “# (# is < 25%)”. The “MAGL % Inh 5 mg/kg (mouse)” value on MAGL was “### (### is ≥ 75%)”.
`Cc1c(CN2CCCC23CCN(C(=O)OC(C(F)(F)F)C(F)(F)F)CC3)cccc1N1CCCC1` [Example 85, 1,1,1,3,3,3-Hexafluoropropan-2-yl 1-(2-methyl-3-(pyrrolidin-1-yl)benzyl)-1,8-diazaspiro[4.5]decane-8-carboxylate]: the “ABHD6 % Inh 5 mg/kg (mouse)” value on ABHD6 is given as “# (# is < 25%)”. The “FAAH % Inh 5 mg/kg (mouse)” value on FAAH is “# (# is < 25%)”. Further, the “MAGL % Inh 5 mg/kg (mouse)” value on MAGL was “### (### is ≥ 75%)”.
